In publication PMC3365763 (The Journal of Biological Chemistry, 2012):
Numbering of substitutions follows the chain as printed.

Tests used:
Format in all cases: biochemical
[1] = biological target: T1, TG2 (transglutaminase-2, transglutaminase type 2) (Homo sapiens, UniProt P21980, K598S/K600S/K602S/R601S)
T1 sequence (P21980 1-687 K598S/K600S/R601S/K602S): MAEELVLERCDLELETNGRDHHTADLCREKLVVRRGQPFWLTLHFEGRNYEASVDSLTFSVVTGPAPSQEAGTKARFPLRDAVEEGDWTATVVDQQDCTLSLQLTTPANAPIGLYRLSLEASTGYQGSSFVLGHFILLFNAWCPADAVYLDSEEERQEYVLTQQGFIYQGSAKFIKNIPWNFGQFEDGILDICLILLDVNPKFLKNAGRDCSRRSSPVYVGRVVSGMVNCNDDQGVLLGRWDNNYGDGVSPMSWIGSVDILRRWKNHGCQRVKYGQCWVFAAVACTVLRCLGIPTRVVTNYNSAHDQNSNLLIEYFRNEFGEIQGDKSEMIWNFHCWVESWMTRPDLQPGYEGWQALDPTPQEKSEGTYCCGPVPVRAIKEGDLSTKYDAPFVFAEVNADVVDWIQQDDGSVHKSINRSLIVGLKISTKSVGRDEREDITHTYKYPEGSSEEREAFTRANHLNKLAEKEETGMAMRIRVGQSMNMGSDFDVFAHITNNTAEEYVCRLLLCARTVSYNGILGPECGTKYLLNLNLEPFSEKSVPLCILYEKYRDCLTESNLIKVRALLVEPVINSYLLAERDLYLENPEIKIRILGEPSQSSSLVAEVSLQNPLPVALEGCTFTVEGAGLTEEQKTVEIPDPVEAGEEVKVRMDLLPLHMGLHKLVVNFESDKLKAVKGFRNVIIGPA

[2] = biological target: T2, TG2 (transglutaminase-2, transglutaminase type 2) (Homo sapiens, UniProt P21980, R28S)
T2 sequence (P21980 1-687 R28S): T1 sequence (P21980 1-687 K598S/K600S/R601S/K602S) with R28S, S598K, S600K, S601R, S602K

[3] = biological target: T3, TG2 (transglutaminase-2, transglutaminase type 2) (Homo sapiens, UniProt P21980, K634S)
T3 sequence (P21980 1-687 K634S): T1 sequence (P21980 1-687 K598S/K600S/R601S/K602S) with S598K, S600K, S601R, S602K, K634S

[4] = biological target: T4, TG2 (transglutaminase-2, transglutaminase type 2) (Homo sapiens, UniProt P21980, K265S)
T4 sequence (P21980 1-687 K265S): T1 sequence (P21980 1-687 K598S/K600S/R601S/K602S) with K265S, S598K, S600K, S601R, S602K

IC50 [1]: 148 ± 26 µM
IC50 [2]: 64 ± 27 µM
IC50 [3]: 199 ± 36 µM
IC50 [4]: 182 ± 17 µM
SMILES: Nc1nc2c(ncn2[C@@H]2O[C@H](COP(=O)(O)OP(=O)(O)OP(=O)(O)O)[C@@H](O)[C@H]2O)c(=O)[nH]1 [GTP]
